SMILES | melting point
CC(C)(C)c1ccc(-c2ccc(COc3cccc4cc(NS(=O)(=O)C(F)(F)F)ccc34)c(F)c2)cc1 [Example 6, N-[5-(4′-tert-Butyl-3-fluoro-biphenyl-4-ylmethoxy)-naphthalen-2-yl]-C,C,C-trifluoro-methanesulfonamide] | 162 to 164 °C
O=S(=O)(Nc1ccc2c(OCc3ccc(-c4ccc(F)cc4)cc3F)cccc2c1)C(F)(F)F [Example 7, N-[5-(3,4′-Difluoro-biphenyl-4-ylmethoxy)-naphthalen-2-yl]-C,C,C-trifluoro-methanesulfonamide] | 134 to 136 °C
O=S(=O)(Nc1ccc2c(OCc3ccc(-c4ccc(Cl)cc4)cc3F)cccc2c1)C(F)(F)F [Example 8, N-[5-(4′-Chloro-3-fluoro-biphenyl-4-ylmethoxy)-naphthalen-2-yl]-C,C,C-trifluoro-methanesulfonamide] | 151 to 153 °C
COC1(F)C=CC(c2cccc(COc3cccc4cc(NS(=O)(=O)C(F)(F)F)ccc34)c2)=CC1 (centres unmarked) [Example 12, N-[5-(4′-Fluoro-4′-methoxy-biphenyl-3-ylmethoxy)-naphthalen-2-yl]-C,C,C-trifluoro-methanesulfonamide] | 125 to 127 °C
O=S(=O)(Nc1ccc2c(OCc3ccccc3-c3ccccc3)cccc2c1)C(F)(F)F [Example 19, N-[5-(Biphenyl-2-ylmethoxy)-naphthalen-2-yl]-C,C,C-trifluoromethanesulfonamide] | 119 to 121 °C
COc1ccc(-c2cccc(COc3cccc4cc(NS(=O)(=O)C(F)(F)F)ccc34)c2)cc1 [Example 20, C,C,C-Trifluoro-N-[5-(4′-methoxy-biphenyl-3-ylmethoxy)-naphthalen-2-yl]-methanesulfonamide] | 123 to 125 °C
COc1ccc(-c2ccc(Cl)cc2)cc1COc1cccc2cc(NS(=O)(=O)C(F)(F)F)ccc12 [Example 21, N-[5-(4′-Chloro-4-methoxy-biphenyl-3-ylmethoxy)-naphthalen-2-yl]-C,C,C-trifluoromethanesulfonamide] | 155 to 157 °C
O=S(=O)(Nc1ccc2c(OCc3ccc(-c4ccc(Cl)cc4)cc3)cccc2c1)C(F)(F)F [Example 22, N-[5-(4′-Chloro-biphenyl-4-ylmethoxy)-naphthalen-2-yl]-C,C,C-trifluoromethanesulfonamide] | 131 to 133 °C
Cc1c(COc2cccc3cc(NS(=O)(=O)C(F)(F)F)ccc23)cccc1-c1ccccc1 [Example 23, C,C,C-Trifluoro-N-[5-(2-methyl-biphenyl-3-ylmethoxy)-naphthalen-2-yl]-methanesulfonamide] | 124 to 125 °C
O=S(=O)(Nc1ccc2c(OCc3ccc(-c4ccccn4)cc3)cccc2c1)C(F)(F)F [Example 24, C,C,C-Trifluoro-N-[5-(4-pyridin-2-yl-benzyloxy)-naphthalen-2-yl]-methanesulfonamide] | 119 to 120 °C
COc1ccc(-c2cc(COc3cccc4cc(NS(=O)(=O)C(F)(F)F)ccc34)ccc2F)cc1 [Example 26, C,C,C-Trifluoro-N-[5-(6-fluoro-4′-methoxy-biphenyl-3-ylmethoxy)-naphthalen-2-yl]-methanesulfonamide] | 132 to 133 °C
O=S(=O)(Nc1ccc2c(OCc3ccc(-c4ccccc4)cc3Cl)cccc2c1)C(F)(F)F [Example 29, N-[5-(3-Chloro-biphenyl-4-ylmethoxy)-naphthalen-2-yl]-C,C,C-trifluoro-methanesulfonamide] | 131 to 134 °C
O=S(=O)(Nc1ccc2c(OCc3cccc(-c4ccc(F)cc4)n3)cccc2c1)C(F)(F)F [Example 42, C,C,C-Trifluoro-N-{5-[6-(4-fluoro-phenyl)-pyridin-2-ylmethoxy]-naphthalen-2-yl}-methanesulfonamide] | 173 to 174 °C
O=S(=O)(Nc1ccc2c(OCc3cccc(-c4ccc(C(F)(F)F)cc4)n3)cccc2c1)C(F)(F)F [Example 43, C,C,C-Trifluoro-N-{5-[6-(4-trifluoromethyl-phenyl)-pyridin-2-ylmethoxy]-naphthalen-2-yl}-methanesulfonamide] | 180 to 182 °C
O=S(=O)(Nc1ccc2c(OCc3csc(-c4ccc(Cl)cc4)n3)cccc2c1)C(F)(F)F [Example 44, N-{5-[2-(4-Chloro-phenyl)-thiazol-4-ylmethoxy]-naphthalen-2-yl}-C,C,C-trifluoro-methanesulfonamide] | 151 to 153 °C
O=S(=O)(Nc1ccc2c(OCc3csc(-c4ccc(F)cc4)n3)cccc2c1)C(F)(F)F [Example 45, C,C,C-Trifluoro-N-{5-[2-(4-fluoro-phenyl)-thiazol-4-ylmethoxy]-naphthalen-2-yl}-methanesulfonamide] | 170 to 173 °C
CC(C)(C)c1ccc(-c2nc(COc3cccc4cc(NS(=O)(=O)C(F)(F)F)ccc34)cs2)cc1 [Example 47, N-{5-[2-(4-tert-Butyl-phenyl)-thiazol-4-ylmethoxy]-naphthalen-2-yl}-C,C,C-trifluoro-methanesulfonamide] | 174 to 175 °C
O=S(=O)(Nc1ccc2c(OCc3csc(C4COc5ccccc5O4)n3)cccc2c1)C(F)(F)F (centres unmarked) [Example 50, N-{5-[2-(2,3-Dihydro-benzo[1,4]dioxin-2-yl)-thiazol-4-ylmethoxy]-naphthalen-2-yl}-C,C,C-trifluoro-methanesulfonamide] | 183 to 185 °C

SMILES | melting point
O=S(=O)(Nc1ccc2c(OCc3csc(-c4ccccc4)n3)cccc2c1)C(F)(F)F [Example 51, C,C,C-Trifluoro-N-[5-(2-phenyl-thiazol-4-ylmethoxy)-naphthalen-2-yl]-methanesulfonamide] | 89 to 99 °C
O=S(=O)(Nc1ccc2c(OCc3csc(-c4ccccc4Cl)n3)cccc2c1)C(F)(F)F [Example 54, N-{5-[2-(2-Chloro-phenyl)-thiazol-4-ylmethoxy]-naphthalen-2-yl}-C,C,C-trifluoromethanesulfonamide] | 128 to 129 °C
O=S(=O)(Nc1ccc2c(OCc3csc(-c4ccc(OC(F)(F)F)cc4)n3)cccc2c1)C(F)(F)F [Example 55, C,C,C-Trifluoro-N-{5-[2-(4-trifluoromethoxy-phenyl)-thiazol-4-yl-methoxy]-naphthalen-2-yl}-methanesulfonamide] | 131 to 132 °C
O=S(=O)(Nc1ccc2c(OCc3nc(-c4ccc(F)cc4)sc3Br)cccc2c1)C(F)(F)F [Example 56, N-{5-[5-Bromo-2-(4-fluoro-phenyl)-thiazol-4-ylmethoxy]-naphthalen-2-yl}-C,C,C-trifluoromethanesulfonamide] | 139 to 140 °C
CC(C)(C)c1ccc(C2(COc3cccc4cc(NS(=O)(=O)C(F)(F)F)ccc34)N=CNO2)cc1 (centres unmarked) [Example 59, N-{5-[5-(4-tert-Butyl-phenyl)-[1,2,4]-oxadiazol-5-ylmethoxy)-naphthalen-2-yl}-C,C,C-trifluoro-methanesulfonamide] | 154 to 155 °C
O=S(=O)(Nc1ccc2c(OCc3noc(C45CC6CC(CC(C6)C4)C5)n3)cccc2c1)C(F)(F)F [Example 60, N-[5-(5-Adamantan-1-yl-[1,2,4]oxadiazol-3-ylmethoxy)-naphthalen-2-yl]-C,C,C-trifluoro-methanesulfonamide] | 60 to 62 °C
N#Cc1ccc(C2(COc3cccc4cc(NS(=O)(=O)C(F)(F)F)ccc34)N=CNO2)cc1 (centres unmarked) [Example 61, N-{5-[5-(4-cyano-phenyl)-[1,2,4]-oxadiazol-5-ylmethoxy)-naphthalen-2-yl}-C,C,C-trifluoro-methanesulfonamide] | 184 to 185 °C
COc1cccc(C2(COc3cccc4cc(NS(=O)(=O)C(F)(F)F)ccc34)N=CNO2)c1 (centres unmarked) [Example 62, N-{5-[5-(3-methoxy-phenyl)-[1,2,4]-oxadiazol-5-ylmethoxy)-naphthalen-2-yl}-C,C,C-trifluoro-methanesulfonamide] | 138 to 140 °C
COc1ccc(C2(COc3cccc4cc(NS(=O)(=O)C(F)(F)F)ccc34)N=CNO2)cc1 (centres unmarked) [Example 64, N-{5-[5-(4-methoxy-phenyl)-[1,2,4]-oxadiazol-5-ylmethoxy)-naphthalen-2-yl}-C,C,C-trifluoro-methanesulfonamide] | 146 to 148 °C
O=S(=O)(Nc1ccc2c(OCc3nc(-c4ccc(F)cc4)no3)cccc2c1)C(F)(F)F [Example 65, C,C,C-Trifluoro-N-{5-[3-(4-fluoro-phenyl)-[1,2,4]oxadiazol-5-yl-methoxy]-naphthalen-2-yl}-methanesulfonamide] | 131 to 132 °C
O=S(=O)(Nc1ccc2c(OCc3nc(-c4cccc(C(F)(F)F)c4)no3)cccc2c1)C(F)(F)F [Example 66, C,C,C-Trifluoro-N-{5-[3-(3-trifluoromethyl-phenyl)-[1,2,4]oxadiazol-5-ylmethoxy]-naphthalen-2-yl}-methanesulfonamide] | 155 to 156 °C
NC(=O)Nc1ccc2c(OCc3ccccc3-c3ccccc3)cccc2c1 [Example 74, [5-(Biphenyl-2-ylmethoxy)-naphthalen-2-yl]-urea] | 159 to 161 °C
COc1ccc(-c2ccc(Cl)cc2)cc1COc1cccc2cc(NC(N)=O)ccc12 [Example 76, [5-(4′-Chloro-4-methoxy-biphenyl-3-ylmethoxy)-naphthalen-2-yl]-urea] | 200 °C (dec.)
NC(=O)Nc1ccc2c(OCc3ccc(-c4ccc(Cl)cc4)cc3)cccc2c1 [Example 77, [5-(4′-Chloro-biphenyl-4-ylmethoxy)-naphthalen-2-yl]-urea] | 182 °C (dec.)
O=S(=O)(Nc1ccc2c(OCc3nc4ccccc4s3)cccc2c1)C(F)(F)F [Example 78, N-[5-(Benzothiazol-2-ylmethoxy)-naphthalen-2-yl]-C,C,C-trifluoro-methanesulfonamide] | 190 to 192 °C
Cc1oc(-c2ccccc2)nc1COc1cccc2cc(NS(=O)(=O)C(F)(F)F)ccc12 [Example 79, N-[5-(5-methyl-2-phenyl-oxazol-4-ylmethoxy)naphthalen-2-yl]C,C,C-trifluoromethanesulfonamide] | 192 to 194 °C
O=S(=O)(Nc1ccc2c(OCc3coc(-c4ccccc4)n3)cccc2c1)C(F)(F)F [Example 80, N-[5-(2-phenyl-oxazol-4-ylmethoxy)naphthalen-2-yl]C,C,C-trifluoromethanesulfonamide] | 195 to 197 °C

Source: patent US6933322B2, “Substituted naphthylenes for the treatment of non-insulin dependent diabetes mellitus” (Wyeth, priority 2002, dated 2005)
